According to article PMC8305571 (2021):

Experiments:
[1] = test system: Scle (DNA, G4) TGGGGGGGTGGGTGGGT; assay: CD melting, 264 nm; conditions: 50 mM KCl; mBR buffer, pH 7.0; derived from two Tm (81.5, >100); indicative values
[2] = test system: STAT (DNA, G4) GGGCGGGCGGGCGGG; assay: CD melting, 264 nm; conditions: mBR buffer, pH 7.0, indicative values
[3] = test system: TBA (DNA, G4) GGTTGGTGTGGTTGG; assay: CD melting, 294 nm; conditions: 50 mM KCl; mBR buffer, pH 7.0; derived from two Tm (46.5, 48.5); indicative values
[4] = test system: HTR (DNA, G4) GGGTTAGGGTTAGGGTTAGGG; assay: CD melting, 294 nm; conditions: 50 mM KCl; mBR buffer, pH 7.0; derived from two Tm (63.5, 64.0); indicative values
[5] = test system: ionK (DNA, G4) GGGTTAGGGTTAGGGTAGGG; assay: CD melting, 294 nm; conditions: 50 mM KCl; mBR buffer, pH 7.0; derived from two Tm (59.1, 58.0); indicative values
[6] = test system: TFO1 (DNA, triplex) AAAAAAAACCCCTTTTTTTTCCCCTTTTTTTT; assay: CD melting, 282 nm; conditions: no added salt; mBR buffer, pH 7.0; derived from two Tm (20.4, 17.7); indicative values
[7] = test system: ionK (DNA, G4) GGGTTAGGGTTAGGGTAGGG; assay: CD melting, 294 nm; conditions: 50 mM NaCl; 25 mM mBR buffer, pH 7.0; ligand concentration not given; indicative value
[8] = test system: Scle (DNA, G4) TGGGGGGGTGGGTGGGT; assay: CD melting, 264 nm; conditions: 50 mM NaCl; 25 mM mBR buffer, pH 7.0; ligand concentration not given; indicative value
[9] = test system: HTR (DNA, G4) GGGTTAGGGTTAGGGTTAGGG; assay: temperature gradient gel electrophoresis (TGGE); conditions: 2.5 mM KCl; 25 mM mBR buffer, pH 7.0; 260 µM RhG in gel; antiparallel form; parallel form >62 ± 2 °C with RhG
[10] = test system: G3A (DNA, G4) GGGAGGGAGGGAGGGA; assay: CD titration, PAGE; conditions: 50 mM NaCl or KCl; mBR buffer, pH 7.0; up to 260 µM RhG (CD), 130 µM (PAGE)
[11] = test system: Scle (DNA, G4) TGGGGGGGTGGGTGGGT; assay: induced CD and UV-Vis titration; conditions: 50 mM KCl; mRB buffer, pH 7.0; 130 µM RhG, DNA up to 27 µM
[12] = test system: G3C (DNA, G4) GGGCGGGCGGGCGGGC; assay: CD titration, PAGE; conditions: 50 mM NaCl or KCl; mBR buffer, pH 7.0; up to 260 µM RhG (CD), 130 µM (PAGE)
[13] = test system: VEGF (DNA, G4) GGGGCGGGCCGGGGGCGGG; assay: CD melting, 264 nm; conditions: mBR buffer, pH 7.0, indicative values
[14] = test system: Hema (DNA, G4) GGGGTCGGGCGGGCCGGGTG; assay: CD melting, 264 nm; conditions: 50 mM KCl; mBR buffer, pH 7.0; derived from two Tm (72.0, 86.0); indicative values
[15] = test system: Hema (DNA, G4) GGGGTCGGGCGGGCCGGGTG; assay: CD melting, 264 nm; conditions: 50 mM NaCl; 25 mM mBR buffer, pH 7.0; ligand concentration not given; indicative value
[16] = test system: TBA (DNA, G4) GGTTGGTGTGGTTGG; assay: CD melting, 294 nm; conditions: 50 mM NaCl; 25 mM mBR buffer, pH 7.0; ligand concentration not given; indicative value
[17] = test system: HTR (DNA, G4) GGGTTAGGGTTAGGGTTAGGG; assay: CD melting, 294 nm; conditions: 50 mM NaCl; 25 mM mBR buffer, pH 7.0; ligand concentration not given; indicative value

ΔTm (Tm shift) [1]: > 18.5 °C | ΔTm (RhG minus no ligand) ([2]; 50 mM KCl, derived from two Tm (92.8, >100)): > 7.2 °C | ΔTm (RhG minus no ligand) ([2]; 50 mM NaCl, derived from two Tm (54.5, 76.5)): 22.0 °C | ΔTm (Tm shift) [3]: 2.0 °C | ΔTm (Tm shift) [4]: 0.5 °C | ΔTm (RhG minus no ligand) [5]: -1.1 °C | ΔTm (Tm shift) [6]: -2.7 °C | Tm [7]: 48.5 (no ligand 46.2) °C | Tm [8]: 77.0 (no ligand 62.0) °C | Tm [9]: 50.6 (no ligand 46.5) °C | binding [10]: yes | binding [11]: yes | binding [12]: yes | ΔTm (RhG minus no ligand) ([13]; 50 mM KCl, derived from two Tm (85.6, 87.9)): 2.3 °C | ΔTm (RhG minus no ligand) ([13]; 50 mM NaCl, derived from two Tm (47.5, 82.0)): 34.5 °C | ΔTm (Tm shift) [14]: 14.0 °C | Tm [15]: 54.3 (no ligand ND) °C | Tm [16]: 26.8 (no ligand 20.0) °C | Tm [17]: 52.0 (no ligand 52.0) °C
Compound: CCN=c1cc2oc3cc(NCC)c(C)cc3c(-c3ccccc3C(=O)OCC)c-2cc1C
